# Data as given in US20250092036A1, “COMPOUNDS AND COMPOSITIONS FOR MODULATING THE ACTIVITY OF ERK” (Novartis AG, priority 2023, published 2025).
# Columns and labels:
# [1] = biological target: T1, ERK2[2-360(p-T185/p-Y187)]-Avi (Homo sapiens, UniProt P28482); assay: Biochemical assay (HTRF competition assay); format: binding; conditions: HTRF competition with Example 15 probe, overnight at RT; read-out: Biochemical qualified AC50
# T1 construct: 400 pM ERK2[2-360(p-T185/p-Y187)]-Avi was added to the plate
# Description: The competition assays were performed at RT in a 384-well white polystyrene, flat bottom plate (Greiner #784075) using a final reaction volume of 15 μL and the following assay buffer conditions: 50 mM MOPS, pH 7.2, 10 mM MgCl2, 0.5 mM TCEP, 0.01% Triton-X-100. 75 nL of a 10 mM compound solution in DMSO or 100% DMSO (12 point titration, final concentration: 50 μM-300 pM; final DMSO: 0.5%) was added using an acoustic liquid handler (Echo, Beckman Coulter) to wells containing 7.5 μL of 1-(6-((R)-3-(1-(5-chloro-1-((tetrahydro-2H-pyran-4-yl)methyl)-1H-indole-3-carbonyl)-4-(4-fluorophenyl)piperidine-4-carboxamido)pyrrolidin-1-yl)-6-oxohexyl)-3,3-dimethyl-5-sulfo-2-((1E,3E)-5-((E)-1,3,3-trimethyl-5-sulfoindolin-2-ylidene)penta-1,3-dien-1-yl)-3H-indol-1-ium (Example 15); 7.5 μL 400 pM SA-Tb (Cisbio, 610SATLB) and 400 pM ERK2[2-360(p-T185/p-Y187)]-Avi was added to the plate and incubated overnight at RT. HTRF signal was measured using a microplate reader (PheraStar, BMG Labtech) with excitation and emission wavelengths of […], respectively. The inhibitor dose-response curves were analyzed from the HTRF ratio signal using normalized IC50 regression curve fitting with control-based normalization.
# WM793 cells = assay: Cell proliferation assay (CellTiter-Glo); format: cell-based; conditions: Homo sapiens, WM793, 72 h, 3 d, read-out: Cell proliferation qualified AC50
# Description: (§1) Cancer cell media was prepared by adding 500 mL of RPMI (ThermoFisher cat ##22400-089) and 10% Fetal Bovine Serum (Gibco) for WM793 cells (ATCC Cat #CRL-2806, RRID: CVCL 8787) and F12K (Thermo Fisher cat #21127-022, 500 mL; or 21127-030, 10×500 mL)+10% FBS for PC3 (ATCC CRL-1435) cells. The entire media with supplements was filter sterilized through a 0.4 μm bottle top filter system. Cancer cell lines were detached from traditional cell culture flasks by washing three times with 1×PBS and adding an appropriate amount of 0.25% TrypLE™ Express Enzyme (1×), no phenol red (ThermoFisher cat #12604013) to create a thin layer over the cells. Trypsin was neutralized with media containing serum and proceeded to count the cells.
# After counting the cells, the concentration of the cell solution was adjusted to seed a total of 750 cells per well in 50 μL of complete media into 384-well tissue culture treated plates. In a biological safety cabinet, cells were seeded using a sterilized small stainless steel tipped cassette on a Multi-drop Combi. Between different cell lines, the tubing of the cassette was flushed with 1× sterile PBS for 10 seconds. Alternatively, cells can be seeded using a Multi-flow located within a Hepa filtered robotics room using either a sterilized small sapphire jewel tipped cassette and the peristatic pump, or the attached syringe pump, depending on volume of plates per cell line needed. The plates were placed in an incubator set at 37° C., with 5% CO2 and 95% relative humidity. A 10-point, 3-fold serial dilutions of compounds in 100% DMSO was prepared on a liquid handling robot with a 10 mM top concentration. 100 nL/well in three assay plates/1 compound was dispensed to source plate, with the highest concentration at 20 μM. After addition of compound was complete, plates were placed into an incubator at 37° C., with 5% CO2 and 95% relative humidity for 3 d. An adequate volume of CellTiter-Glo® (Promega #G7571) detection reagent was pre-warmed to RT or in a 37° C. H2O bath. 25 μL of the reagent was added to each well using either a Multi-drop Combi or MultiFlo and incubate at RT for at least 15 min. Luminesce was captured on a plate luminometer such as an Envision or View Lux to measure Day 0 time point both select cell lines. LUM plus, gain 3500, 0.1 s and focal height 12.5 mm on PheraStar reader. At Day 3, an adequate volume of CellTiter-Glo® detection reagent was pre-warmed at RT or in a 37° C. H2O bath. A total of 25 μL of the reagent was added to each well using either a Multi-drop Combi or MultiFlo and incubate at RT for at least 15 min. Luminesce was captured on a plate luminometer such as an Envision or View Lux to measure Day 3 time point both select cell lines. LUM plus, gain 3500, 0.1 s and focal height 12.5 mm on PheraStar reader. Raw data was extracted from the instrument and all fields containing test compounds were normalized to the average of all wells containing DMSO alone from Day 3 as neutral control and Day 0 starting numbers. From this value, percent growth inhibition of each compound was calculated. Dose response curves and growth inhibitory IC50s were generated by graphing the normalized data values against the compound concentration using a program such as GraphPad™ or Excel Fit.
# [2] = biological target: T2, nanobit-large-bit-ERK2 and nanobit-small-bit-PEA15 in WM793 cells (Homo sapiens, UniProt P28482); assay: NanoBiT assay; format: cell-based; conditions: WM793 nanobit stable cell line, overnight incubation; read-out: NanoBiT qualified absolute AC50
# T2 construct: expressed in transfected cells
# Description: as §1
# A nanobit stable cell line was generated using WM793 cells with nanobit-large-bit-ERK2 and nanobit-small-bit-PEA15. […] In a biological safety cabinet, cells were seeded using a sterilized small stainless steel tipped cassette on a Multi-drop Combi. Between different cell lines, the tubing of the cassette was flushed with 1× sterile PBS for 10 s. Alternatively, cells can be seeded using a Multi-flow located within a Hepa filtered robotics room using either a sterilized small sapphire jewel tipped cassette and the peristatic pump, or the attached syringe pump, depending on volume of plates per cell line needed. The plates were placed in an incubator set at 37° C., with 5% CO2 and 95% relative humidity. A 10-point, 3-fold serial dilution of compounds was prepared in 100% DMSO on a liquid handling robot with a 10 mM top concentration. 90 nl/well was dispensed in three assay plates/1 compound source plate, with the highest concentration at 30 μM. After addition of compound was complete, the plates were placed into an incubator at 37° C., with 5% CO2 and 95% relative humidity for overnight. Luminescence was captured on a plate luminometer such as an Envision or View Lux to measure Day 0 time point both select cell lines. LUM plus, gain 3500, 0.1 s and focal height 12.5 [mm] on PheraStar reader. The raw data was extracted from the instrument and normalized all fields containing test compounds to the average of all wells containing DMSO alone as neutral control. From this value, the percent growth inhibition was calculated for each compound. Dose response curves and inhibitory IC50s were generated by graphing the normalized data values against the compound concentration using either a program such as GraphPad™ or Excel Fit.
# T1 sequence (P28482 2-360 limits assumed): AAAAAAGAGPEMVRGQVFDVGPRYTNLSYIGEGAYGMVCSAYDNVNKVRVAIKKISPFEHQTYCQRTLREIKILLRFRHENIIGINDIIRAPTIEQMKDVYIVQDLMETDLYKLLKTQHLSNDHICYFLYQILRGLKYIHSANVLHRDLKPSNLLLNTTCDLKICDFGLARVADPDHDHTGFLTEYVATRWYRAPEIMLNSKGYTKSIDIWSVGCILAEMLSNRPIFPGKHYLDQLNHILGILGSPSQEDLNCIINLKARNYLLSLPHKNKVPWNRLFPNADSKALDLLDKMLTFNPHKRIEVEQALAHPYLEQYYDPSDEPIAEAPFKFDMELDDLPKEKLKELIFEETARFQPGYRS
# T2 sequence (P28482 whole entry): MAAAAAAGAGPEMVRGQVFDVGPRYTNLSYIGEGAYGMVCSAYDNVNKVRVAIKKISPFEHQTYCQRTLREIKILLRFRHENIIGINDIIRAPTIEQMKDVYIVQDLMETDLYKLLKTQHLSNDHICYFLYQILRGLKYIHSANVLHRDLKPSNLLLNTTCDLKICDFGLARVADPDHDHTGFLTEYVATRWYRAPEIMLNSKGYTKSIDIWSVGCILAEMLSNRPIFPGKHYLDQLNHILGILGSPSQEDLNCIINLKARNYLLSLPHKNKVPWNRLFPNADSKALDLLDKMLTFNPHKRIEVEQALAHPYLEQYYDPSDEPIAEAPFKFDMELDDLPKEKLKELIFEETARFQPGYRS
Compound,AC50 [1] [nM],AC50 (WM793 cells) [nM],AC50 [2] [nM]
"Cc1c(C(=O)N2CCC(C(=O)N[C@H]3CN(C)C[C@H]3F)(c3ccc(F)cc3)CC2)c2cc(Cl)ccc2n1CC1CCOCC1 [Example 12, 1-(5-chloro-2-methyl-1-((tetrahydro-2H-pyran-4-yl)methyl)-1H-indole-3-carbonyl)-N-((3S,4R)-4-fluoro-1-methylpyrrolidin-3-yl)-4-(4-fluorophenyl)piperidine-4-carboxamide]",1.3,270,350
"CCOC1CCC(Cc2c(C)n(C(=O)N3CC[C@@](C(=O)N[C@H]4CC[C@H](C(=O)O)C[C@@H]4C)(c4ccc(F)cc4)C[C@@H]3C)c3cc(F)ccc23)OC1 (single isomer, unassigned) [Example 8a]",< 0.28,13,28
COCCc1c(C[C@H]2CC[C@H](OC(C)C)CC2)c2ccc(Cl)cc2n1C(=O)N1CCC(C(=O)N[C@H]2CC[C@H](C(=O)O)C[C@@H]2C)(c2ccc(F)cc2)CC1 [Example 1g],< 0.28,93,210
"C[C@H]1C[C@@H](C(=O)O)CC[C@@H]1NC(=O)[C@@]1(c2ccc(F)cc2)CCN(C(=O)n2c3c(c4ccc(F)cc42)C(C2CCOCC2)OCC3)[C@@H](C)C1 (single isomer, unassigned) [Example 10]",< 0.28,40,280
"C[C@H]1C[C@@H](C(=O)O)CC[C@@H]1NC(=O)C1(c2ccc(F)cc2)CCN(C(=O)n2c3c(c4ccc(F)cc42)[C@H](c2ccccc2)OCC3)CC1 (single isomer, unassigned) [Example 10a]",0.35,77,88
"CC(C)O[C@H]1CC[C@H](C2CN(C(=O)N3CC[C@@](C(=O)N[C@H]4CC[C@H](C(=O)O)C[C@@H]4C)(c4ccc(F)cc4)C[C@@H]3C)c3cc(F)ccc32)CC1 (single isomer, unassigned) [Example 4c]",3.9,410,1200
CCc1c(C[C@H]2CC[C@H](OC3CCOCC3)CC2)c2ccc(F)cc2n1C(=O)N1CCC(C(=O)N[C@H]2CC[C@H](C(=O)O)C[C@@H]2C)(c2ccc(Cl)nc2)CC1 [Example 1k],0.48,33,250
"CCO[C@H]1CC[C@H](Cc2c(C)n(C(=O)N3CC[C@@](C(=O)N[C@H]4CC[C@H](C(=O)O)C[C@@H]4C)(c4ccc(F)cc4)C[C@@H]3C)c3cc(F)ccc23)OC1 (mixture of isomers) [Example 8, (1S,3S,4S)-4-((2S,4S)-1-(3-((trans-5-ethoxytetrahydro-2H-pyran-2-yl)methyl)-6-fluoro-2-methyl-1H-indole-1-carbonyl)-4-(4-fluorophenyl)-2-methylpiperidine-4-carboxamido)-3-methylcyclohexane-1-carboxylic acid]",< 0.28,15,31
CCc1c(C[C@H]2CC[C@H](OC3CCOCC3)CC2)c2ccc(F)cc2n1C(=O)N1CCC(C(=O)N[C@H]2C[C@H](C(=O)O)C[C@@H]2C)(c2ccc(F)cc2)CC1 [Example 1d],< 0.28,110,300
"Cc1c(C[C@H]2CC[C@H](OC3CCOCC3)CC2)c2ccc(F)cc2n1C(=O)N1CC[C@@](C(=O)N[C@H]2CC[C@H](C(=O)O)C[C@@H]2C)(c2ccc(F)cc2)C[C@@H]1C [Example 9, (1S,3S,4S)-4-((2S,4S)-1-(6-fluoro-2-methyl-3-(((1r,4S)-4-((tetrahydro-2H-pyran-4-yl)oxy)cyclohexyl)methyl)-1H-indole-1-carbonyl)-4-(4-fluorophenyl)-2-methylpiperidine-4-carboxamido)-3-methylcyclohexane-1-carboxylic acid]",0.44,5.9,26
"O=Cc1c(C(=O)N2CCC(C(=O)N[C@H]3CNC[C@H]3F)(c3ccc(F)cc3)CC2)c2cc(Cl)ccc2n1CC1CCOCC1 [Example 14, 1-(5-chloro-2-formyl-1-((tetrahydro-2H-pyran-4-yl)methyl)-1H-indole-3-carbonyl)-4-(4-fluorophenyl)-N-((3S,4R)-4-fluoropyrrolidin-3-yl)piperidine-4-carboxamide]",0.48,120,
CN1C[C@@H](F)[C@@H](NC(=O)C2(c3ccc(F)cc3)CCN(C(=O)c3c(C(F)F)n(CC4CCOCC4)c4ccc(Cl)cc34)CC2)C1 [Example 11i],0.72,54,
CN1CCC(NC(=O)C2(c3ccc(F)cc3)CCN(C(=O)c3c(C=O)n(CC4CCOCC4)c4ccc(Cl)cc34)CC2)CC1 [Example 11d],,430,
CN1CC[C@@H](NC(=O)C2(c3ccc(F)cc3)CCN(C(=O)c3c(C=O)n(CC4CCOCC4)c4ccc(Cl)cc34)CC2)C1 [Example 11f],,140,
CN1CC(NC(=O)C2(c3ccc(F)cc3)CCN(C(=O)c3c(C=O)n(CC4CCOCC4)c4ccc(Cl)cc34)CC2)C1 [Example 11e],,290,
C[C@H]1[C@@H](NC(=O)C2(c3ccc(F)cc3)CCN(C(=O)c3c(C=O)n(CC4CCOCC4)c4ccc(Cl)cc34)CC2)CN1C [Example 11c],,17,
CN1C[C@@H](F)[C@@H](NC(=O)C2(c3ccc(F)cc3)CCN(C(=O)c3c(C#N)n(CC4CCOCC4)c4ccc(Cl)cc34)CC2)C1 [Example 11j],0.97,730,
CN1CC[C@@H](NC(=O)C2(c3ccccc3)CCN(C(=O)c3c(C=O)n(CC4CCOCC4)c4ccc(Cl)cc34)CC2)C1 [Example 11a],0.87,300,
